Experimental data from ChEMBL document CHEMBL1201862, “PubChem BioAssay data set” (2004).
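Exposure lasted 48 hours, with cells grown in 96-well plates and compounds tested at five concentrations. Abbreviation: GI50, concentration required for 50% inhibition of growth.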 Activity calls are given as the source filed them. Cut-off read from the data, not from the text of the source: active = GI50 up to about 1.1 µM and inactive = higher.

What was measured:
Assay in all cases: growth of human tumour cells (NCI), 48 h
[1] = test system: MDA-MB-435
[2] = test system: UO-31
[3] = test system: NCI-H522
[4] = test system: CAKI-1
[5] = test system: U-251
[6] = test system: HOP-62
[7] = test system: 786-0
[8] = test system: HCT-15
[9] = test system: NCI-H460
[10] = test system: HT-29
[11] = test system: SN12C
[12] = test system: NCI/ADR-RES
[13] = test system: HCC 2998
[14] = test system: TK-10
[15] = test system: OVCAR-4
[16] = test system: MDA-N
[17] = test system: SNB-75
[18] = test system: UACC-62
[19] = test system: CCRF-CEM
[20] = test system: RPMI-8226
[21] = test system: SF-268
[22] = test system: OVCAR-3
[23] = test system: OVCAR-8
[24] = test system: SF-295
[25] = test system: SNB-19
[26] = test system: K562
[27] = test system: MOLT-4
[28] = test system: NCI-H23
[29] = test system: LOX IMVI
[30] = test system: PC-3
[31] = test system: KM12
[32] = test system: HCT-116
[33] = test system: Hs-578T
[34] = test system: A549
[35] = test system: T47D
[36] = test system: UACC-257
[37] = test system: HL-60
[38] = test system: SK-MEL-5
[39] = test system: DU-145
[40] = test system: COLO 205
[41] = test system: SR
[42] = test system: RXF 393
[43] = test system: SK-OV-3
[44] = test system: SK-MEL-2
[45] = test system: ACHN
[46] = test system: SW-620
[47] = test system: MCF7
[48] = test system: EKVX
[49] = test system: MDA-MB-231
[50] = test system: M14
[51] = test system: OVCAR-5
[52] = test system: Malme-3M
[53] = test system: SF-539
[54] = test system: IGROV-1
[55] = test system: A498
[56] = test system: NCI-H226
[57] = test system: HOP-92
[58] = test system: BT-549
[59] = test system: SK-MEL-28

## OC(c1cc(-c2ccccc2)nc2c1ccc1ccccc12)C1CCCCN1 (stereo not drawn)
[1]
  GI50: 1830 nM (inactive)
[2]
  GI50: 1020 nM (active)
[3]
  GI50: 1580 nM (inactive)
[4]
  GI50: 1910 nM (inactive)
[5]
  GI50: 1760 nM (inactive)
[6]
  GI50: 1670 nM (inactive)
[7]
  GI50: 1640 nM (inactive)
[8]
  GI50: 2120 nM
[9]
  GI50: 1790 nM (inactive)
[10]
  GI50: 1680 nM (inactive)
[11]
  GI50: 1620 nM (inactive)
[12]
  GI50: 2100 nM (inactive)
[13]
  GI50: 590 nM (active)
[14]
  GI50: 1750 nM (inactive)
[15]
  GI50: 1960 nM (inactive)
[16]
  GI50: 1640 nM (inactive)
[17]
  GI50: 1980 nM (inactive)
[18]
  GI50: 1850 nM (inactive)
[19]
  GI50: 47.3 nM (active)
[20]
  GI50: 1120 nM (active)
[21]
  GI50: 1430 nM (inactive)
[22]
  GI50: 1840 nM (inactive)
[23]
  GI50: 1960 nM (inactive)
[24]
  GI50: 1970 nM (inactive)
[25]
  GI50: 1820 nM (inactive)
[26]
  GI50: 2540 nM (inactive)
[27]
  GI50: 2180 nM (inactive)
[28]
  GI50: 1950 nM (inactive)
[29]
  GI50: 1110 nM (active)
[30]
  GI50: 1710 nM (inactive)
[31]
  GI50: 1860 nM (inactive)
[32]
  GI50: 1630 nM (inactive)
[33]
  GI50: 1510 nM (inactive)
[34]
  GI50: 1850 nM (inactive)
[35]
  GI50: 1930 nM (inactive)
[36]
  GI50: 1820 nM (inactive)
[37]
  GI50: 855 nM (active)
[38]
  GI50: 2800 nM (inactive)
[39]
  GI50: 2020 nM (inactive)
[40]
  GI50: 1950 nM (inactive)
[41]
  GI50: 1180 nM (inactive)
[42]
  GI50: 1810 nM (inactive)
[43]
  GI50: 1880 nM (inactive)
[44]
  GI50: 1790 nM (inactive)
[45]
  GI50: 1830 nM (inactive)
[46]
  GI50: 1780 nM (inactive)
[47]
  GI50: 1870 nM (inactive)
[48]
  GI50: 1930 nM (inactive)
[49]
  GI50: 1790 nM (inactive)
[50]
  GI50: 1730 nM (inactive)
[51]
  GI50: 1600 nM (inactive)
[52]
  GI50: 1380 nM (inactive)
[53]
  GI50: 1920 nM (inactive)
[54]
  GI50: 1680 nM (inactive)
[55]
  GI50: 1920 nM (inactive)
[56]
  GI50: 2950 nM (inactive)
[57]
  GI50: 1620 nM (inactive)
[58]
  GI50: 3970 nM (inactive)
[59]
  GI50: 1810 nM (inactive)

## CC(=O)Nc1cc(C(=O)Nc2cc(C(=O)N3CC(CCl)c4c3cc(N)c3ccccc43)nn2C)nn1C (stereo not drawn)
[1]
  GI50: 138 nM (active)
[2]
  GI50: 294 nM (active)
[3]
  GI50: < 10 nM (active)
[4]
  GI50: < 39.3 nM (active)
[5]
  GI50: 19.4 nM (active)
[6]
  GI50: 101 nM (active)
[7]
  GI50: 89.3 nM (active)
[8]
  GI50: 571 nM
[9]
  GI50: < 10 nM (active)
[10]
  GI50: 216 nM (active)
[11]
  GI50: < 10 nM (active)
[12]
  GI50: 541 nM (active)
[13]
  GI50: 115 nM (active)
[14]
  GI50: 251 nM (active)
[15]
  GI50: 171 nM (active)
[16]
  GI50: 133 nM (active)
[17]
  GI50: 21.5 nM (active)
[18]
  GI50: < 11.8 nM (active)
[19]
  GI50: < 10 nM (active)
[20]
  GI50: 188 nM (active)
[21]
  GI50: < 13.2 nM (active)
[22]
  GI50: 230 nM (active)
[23]
  GI50: 20.9 nM (active)
[24]
  GI50: 287 nM (active)
[25]
  GI50: 127 nM (active)
[26]
  GI50: 38.1 nM (active)
[27]
  GI50: < 11.2 nM (active)
[28]
  GI50: < 10.4 nM (active)
[29]
  GI50: 11.7 nM (active)
[30]
  GI50: 101 nM (active)
[31]
  GI50: 188 nM (active)
[32]
  GI50: 18.7 nM (active)
[33]
  GI50: 176 nM (active)
[34]
  GI50: 187 nM (active)
[35]
  GI50: < 10 nM (active)
[36]
  GI50: 186 nM (active)
[37]
  GI50: < 10 nM (active)
[38]
  GI50: 17.8 nM (active)
[39]
  GI50: < 10 nM (active)
[40]
  GI50: 112 nM (active)
[41]
  GI50: < 10 nM (active)
[42]
  GI50: 11.5 nM (active)
[43]
  GI50: 36.2 nM (active)
[44]
  GI50: 73.1 nM (active)
[45]
  GI50: < 14.8 nM (active)
[46]
  GI50: < 38.3 nM (active)
[47]
  GI50: 168 nM (active)
[48]
  GI50: 159 nM (active)
[49]
  GI50: 185 nM (active)
[50]
  GI50: 286 nM (active)
[51]
  GI50: 310 nM (active)
[52]
  GI50: 115 nM (active)
[53]
  GI50: 19.1 nM (active)
[54]
  GI50: 40.5 nM (active)
[55]
  GI50: < 11.5 nM (active)
[56]
  GI50: < 23.2 nM (active)
[57]
  GI50: < 21.8 nM (active)
[58]
  GI50: 185 nM (active)
[59]
  GI50: 78.2 nM (active)
